This note sets out measurements from patent publication US20050153992A1, “Pyrrolopyrimidine thion derivatives” (TEIJIN PHARMA LIMITED, priority 2003, published 2005).

What is called IC50 is the concentration that inhibits the measured activity by half.

For this test, the target named is recombinant human GSK-3β (Homo sapiens, UniProt P49841). In words: Determination of Inhibition of GSK-3 Activity (phospho-glycogen synthase peptide-2, [γ-33P]ATP, scintillation counting). Format: biochemical. The conditions noted are these: 20 μM ATP, 20 minutes at room temperature; read-out: GSK-3 inhibitor activity values (IC50 values). Here is the method:
Determination of Inhibition of GSK-3 Activity
The reaction was initiated by adding 25 μL of phospho-glycogen synthase peptide-2 substrate solution [containing 6 μM phospho-glycogen synthase peptide-2, 20 μM ATP, 16 mM MOPS buffer (pH 7.0), 0.2 mM EDTA, 20 mM magnesium acetate, 0.1 μ Ci[γ-^33P]ATP (relative activity: approximately 110 TBq/mmol)] to 5 μL of each test compound using 5% dimethylsulfoxide as a solvent, and further adding 20 μL of GSK-3β enzyme solution [containing 10 mU recombinant human GSK-3β, 20 mM MOPS buffer (pH 7.0), 1 mM EDTA, 0.1% polyoxyethylene lauryl ether (23 Lauryl Ether; Brij 35), 5% glycerol, and 0.1% β-mercaptoethanol. After 20 minutes at room temperature, the reaction was terminated by the addition of the equivalent amount of 200 mM phosphoric acid solution. 90 μL of the reaction product was spotted onto a multiscreen PH plate (manufactured by Millipore) and washed with 100 mM phosphoric acid solution. The plate was dried, and 30 μL of MicroScint-O (manufactured by Packard BioScience) was added thereto. To evaluate inhibitory activity, cpm was counted using a scintillation counter. Here, Phospho GS Peptide 2 is an amino acid peptide having the following sequence: […]P)-Glu-Asp-Glu- Glu-Glu.
GSK-3 inhibitor activity values (IC50 values) of the compounds according to the present invention were measured by the method described above. As a result, inhibition activity of IC50<100 nM was confirmed in compounds of compound numbers 1, 35, 36, 37, 123, 157, 158, 160, 193, 234, and 263.

Chain of recombinant human GSK-3β (P49841 whole entry): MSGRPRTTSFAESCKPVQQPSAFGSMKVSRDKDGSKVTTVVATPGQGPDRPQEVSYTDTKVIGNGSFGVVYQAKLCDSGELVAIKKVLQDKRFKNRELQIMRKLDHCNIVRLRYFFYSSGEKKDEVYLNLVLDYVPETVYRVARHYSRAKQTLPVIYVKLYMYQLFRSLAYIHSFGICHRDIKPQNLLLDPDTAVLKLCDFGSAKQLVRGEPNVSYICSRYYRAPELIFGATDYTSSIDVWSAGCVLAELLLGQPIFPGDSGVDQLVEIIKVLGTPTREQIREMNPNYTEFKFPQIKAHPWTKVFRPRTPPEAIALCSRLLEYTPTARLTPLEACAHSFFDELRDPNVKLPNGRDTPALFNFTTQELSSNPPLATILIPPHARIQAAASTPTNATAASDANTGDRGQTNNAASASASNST

On to `Nc1c(-c2sccc2Cl)n(CCNC(=O)c2ccc(F)cc2)c2c(=S)[nH]cnc12` [Compound 160, N-{2-[7-amino-6-(3-chloro(2-thienyl))-4-thioxo(3-hydropyrrolo[3,2-d]pyrimidin-5-yl)]ethyl}(4-fluorophenyl)carboxyamide], for which the IC50 was less than 0.1 µM.

`O=C(NCCn1c(-c2sccc2Cl)c(-c2cccnc2)c2nc[nH]c(=S)c21)C(F)(F)F` [Compound 123]: the IC50 was less than 0.1 µM.

On to `O=C(NCCn1c(-c2sccc2Cl)c(NC(=O)c2ccccc2)c2nc[nH]c(=S)c21)c1ccc(F)cc1` [Compound 193, N-{2-[6-(3-chloro(2-thienyl))-7-(phenylcarbonylamino)-4-thioxo(3-hydropyrrolo[3,2-d]pyrimidin-5-yl)]ethyl}(4-fluorophenyl)carboxyamide], for which the 50% inhibitory concentration (IC50) is less than 0.1 µM.

In the case of `S=c1[nH]cnc2c(I)c(-c3sccc3Cl)n(CCNc3ncnc4ccccc34)c12` [Compound 37, 6-(3-chloro(2-thienyl))-7-iodo-5-[2-(quinazolin-4-ylamino)ethyl]-3-hydropyrrolo[3,2-d]pyrimidin-4-thione], the IC50 was less than 0.1 µM.

On to `O=C(NCCn1c(-c2sccc2Cl)c(Br)c2nc[nH]c(=S)c21)c1ccc(F)cc1` [Compound 158], for which the IC50 was less than 0.1 µM.

Consider `O=C(NCCn1c(-c2sccc2Cl)c(I)c2nc[nH]c(=S)c21)c1ccc(F)cc1` [Compound 1, N-{2-[6-(3-chloro(2-thienyl))-7-iodo-4-thioxo(3-hydropyrrolo[3,2-d]pyrimidin-5-yl)]ethyl}(4-fluorophenyl)carboxyamide], for which the half-inhibitory concentration (IC50) was less than 0.1 µM.

For `O=C(NCCn1c(-c2sccc2Cl)c(Cl)c2nc[nH]c(=S)c21)c1ccc(F)cc1` [Compound 157], the half-inhibitory concentration (IC50) was less than 0.1 µM.

Turning to `CCn1nc(C)cc1C(=O)NCCn1c(-c2sccc2Cl)c(I)c2nc[nH]c(=S)c21` [Compound 234, N-{2-[6-(3-chloro(2-thienyl))-7-iodo-4-thioxo(3-hydropyrrolo[3,2-d]pyrimidin-5-yl)]ethyl}(1-ethyl-3-methylpyrazol-5-yl)carboxyamide], the half-maximal inhibitory concentration (IC50) is less than 0.1 µM.
